From US20110152267A1, “Compositions and Methods for Treating Hyperproliferative Disorders” (Texas Tech University System, priority 2009, published 2011)

How the values were obtained:
Assay type in all cases: cell-based, human
[1] = system: PC-3 prostate adenocarcinoma cell line; assay: DIMSCAN cytotoxicity, fenretinide + L-threo-sphinganines 3:1 (Example B17)
Method: (§1) Cytotoxicity Assay—Once again, cytotoxicity is determined using the DIMSCAN assay system (R. Proffitt et al., Cytometry 24, 204-213 (1996); T. Frgala et al., Mol Cancer Ther. 6:886-97, 2007). The system employs digital imaging microscopy to quantify viable cells, which selectively accumulate fluorescein diacetate to become brightly fluorescent. The system is capable of measuring cytotoxicity over a 4-5 log dynamic range by quenching the residual fluorescence of dead and dying cells with eosin Y and quantifying the total fluorescence of viable cells using digital thresholding. Measured fluorescence is directly proportionate to the number of viable cells. A comparison of the total fluorescence of a drug-treated cell population to the fluorescence of a similar number of untreated cells yields a survival fraction. In brief, 2000 to 10,000 cells/well (depending on size and growth rates) are replicate plated into 60 wells of a 96-well tissue culture plate in 0.1 mL of whole medium and allowed to attach overnight. Drug(s) are then added in 0.05 mL of whole medium to the final concentrations indicated. Drugs (fenretinide, and various chain length L-threo-sphinganines) were tested both as single agents and in a 3:1 ratio of fenretinide:sphinganine. C18-L-threo-sphinganine, or “safingol,” was also tested and results shown for reference. There are 12 wells treated per drug concentration. Twelve wells receive drug vehicle-only to the appropriate final concentration and serve as controls for the plate. Cells are incubated for 96 hours at 37° C. in ambient air with 5% CO2. Fluorescein diacetate is then added to each well in 0.05 mL media to a final concentration of 8 microgram/mL. Cells are incubated for a further 15 minutes at 37° C. and 0.03 mL of 0.5% eosin Y is added to each well. Total fluorescence of viable cells is then measured by digital imaging microscopy. Results were graphed as the ratio of the fluoresecence of drug-treated wells to non-drug treated control wells (i.e., Survival Fraction). All tests were performed at least twice. Representative results are shown.
(§2) The Combination Index (CI) is a term to describe mathematical modeling of the pharmacologic effects on cytotoxicity (cell death) of two drugs in combination based. Cytotoxic “synergy” is defined as a cell death affect which is greater than would be expected from a simple product of the single agent cytotoxicities alone (i.e. an “additive” effect). By Chou-Talalay analysis, a CI<0.9 on a Fraction Affected (“Fa”, i.e. fraction of cells killed) indicates synergy, with smaller numbers indicating greater synergy; a CI of 0.9-1.1 signifies an additive or near-additive effect; and a CI>1.1 means the drug combination is antagonistic.
Fenretinide and L-threo-sphinganines tested in human prostate adenocarcinoma (prostate cancer) cell line, PC-3.

[2] = system: HT-29 colorectal adenocarcinoma cell line; assay: DIMSCAN cytotoxicity, fenretinide + L-threo-sphinganines 3:1 (Example B10); settings: 96 h
Method: as §1, §2
Fenretinide and L-threo-sphinganines tested in human colorectal adenocarcinoma (colon cancer) cell line, HT-29.

[3] = system: SJ-GBM2 Glioblastoma multiforme cell line; assay: DIMSCAN cytotoxicity, fenretinide + L-threo-sphinganines 3:1 (Example B7); parameters: key to CI (Combination Index): Chou-Talalay CI: <0.9 synergy, 0.9-1.1 additive, >1.1 antagonism; settings: 96 h
Method: as §1, §2
Fenretinide and L-threo-sphinganines tested in human Glioblastoma multiforme (brain cancer) cell line, SJ-GBM2.

[4] = system: U-118 Glioblastoma cell line; assay: DIMSCAN cytotoxicity, fenretinide + L-threo-sphinganines 3:1 (Example B5); parameters: key to CI (Combination Index): CI<0.9 synergy, 0.9-1.1 additive, >1.1 antagonistic; settings: U-118 MG, 96 h
Method: as §1, §2
Fenretinide and L-threo-sphinganines tested in human Glioblastoma (brain cancer) cell line, U-118.

[5] = system: T98G Glioblastoma multiforme cell line; assay: DIMSCAN cytotoxicity, fenretinide + L-threo-sphinganines 3:1 (Example B6); settings: 96 h
Method: as §1, §2
Fenretinide and L-threo-sphinganines tested in human Glioblastoma multiforme (brain cancer) cell line, T98G.

[6] = system: PANC-1 pancreatic adenocarcinoma cell line; assay: DIMSCAN cytotoxicity, fenretinide + L-threo-sphinganines 3:1 (Example B18)
Method: as §1, §2
Fenretinide and L-threo-sphinganines tested in human pancreatic adenocarcinoma (pancreas cancer) cell line, PANC-1.

[7] = system: U-266 Multiple Myeloma cell line; assay: DIMSCAN cytotoxicity, fenretinide + L-threo-sphinganines 3:1 (Example B3); settings: 96 h
Method: as §1, §2
Fenretinide and L-threo-sphinganines tested in human Multiple Myeloma (a cancer of the blood and bone marrow) cell line, U-266.

[8] = system: A-2058 melanoma cell line; assay: DIMSCAN cytotoxicity, fenretinide + L-threo-sphinganines 3:1 (Example B11); settings: 96 h
Method: as §1, §2
Fenretinide and L-threo-sphinganines tested in human melanoma (skin cancer) cell line, A-2058.

[9] = 4-HPR 1.5 μM + L-threo-sphinganine 0.5 μM
[10] = 4-HPR 3 μM + L-threo-sphinganine 1 μM
[11] = 4-HPR 6 μM + L-threo-sphinganine 2 μM
[12] = 4-HPR 9 μM + L-threo-sphinganine 3 μM

CCCCCCCCCCCCCCCC[C@H](O)[C@@H](N)CO [C19, (2S,3S)-2-amino-1,3-nonadecanediol]
CI [1, 9]: 1.0 | Fa [1, 9]: 0.233 | CI [1, 10]: 1.1 | Fa [1, 10]: 0.406 | CI [1, 11]: 1.1 | Fa [1, 11]: 0.635 | CI [1, 12]: 0.5 | Fa [1, 12]: 0.913 | CI (Combination Index) [2, 9]: 1.2 | Fa (fraction affected) [2, 9]: 0.138 | CI (Combination Index) [2, 10]: 1.0 | Fa (fraction affected) [2, 10]: 0.736 | CI (Combination Index) [2, 11]: 0.8 | Fa (fraction affected) [2, 11]: 0.965 | CI (Combination Index) [2, 12]: 0.8 | Fa (fraction affected) [2, 12]: 0.993 | CI (Combination Index) [3, 9]: >>1 | Fa (fraction affected) [3, 9]: 0.001 | CI (Combination Index) [3, 10]: 0.4 | Fa (fraction affected) [3, 10]: 0.672 | CI (Combination Index) [3, 11]: 0.7 | Fa (fraction affected) [3, 11]: 0.925 | CI (Combination Index) [3, 12]: 0.8 | Fa (fraction affected) [3, 12]: 0.997 | CI (Combination Index) [4, 9]: 1.3 | Fa (fraction affected) [4, 9]: 0.530 | CI (Combination Index) [4, 10]: 0.9 | Fa (fraction affected) [4, 10]: 0.882 | CI (Combination Index) [4, 11]: 0.4 | Fa (fraction affected) [4, 11]: 0.991 | CI (Combination Index) [4, 12]: 0.3 | Fa (fraction affected) [4, 12]: 0.998 | CI (Combination Index) [5, 9]: 0.9 | Fa (fraction affected) [5, 9]: 0.584 | CI (Combination Index) [5, 10]: 1.1 | Fa (fraction affected) [5, 10]: 0.704 | CI (Combination Index) [5, 11]: 0.1 | Fa (fraction affected) [5, 11]: 0.990 | CI (Combination Index) [5, 12]: 0.1 | Fa (fraction affected) [5, 12]: 0.995 | CI [6, 9]: 1.5 | Fa [6, 9]: 0.182 | CI [6, 10]: 1.8 | Fa [6, 10]: 0.321 | CI [6, 11]: 1.4 | Fa [6, 11]: 0.663 | CI [6, 12]: 0.1 | Fa [6, 12]: 0.997 | CI (Combination Index) [7, 9]: 1.0 | Fa (fraction affected) [7, 9]: 0.19 | CI (Combination Index) [7, 10]: 1.4 | Fa (fraction affected) [7, 10]: 0.414 | CI (Combination Index) [7, 11]: 0.9 | Fa (fraction affected) [7, 11]: 0.933 | CI (Combination Index) [7, 12]: 0.3 | Fa (fraction affected) [7, 12]: 0.999 | CI (Combination Index) [8, 9]: 2.1 | Fa (fraction affected) [8, 9]: 0.016 | CI (Combination Index) [8, 10]: 1.7 | Fa (fraction affected) [8, 10]: 0.198 | CI (Combination Index) [8, 11]: 1.8 | Fa (fraction affected) [8, 11]: 0.648 | CI (Combination Index) [8, 12]: 0.8 | Fa (fraction affected) [8, 12]: 0.997
